Measured values from publication PMC5286520 (Scientific Reports, 2017).
Read-outs that look alike come from different tables or passages of the source. Bridge positions count the residues as written; N and C are the ends. Square brackets hold non-standard residues; d marks the D form. Peptide text beside a SMILES is read from it.

Experiments:
[1] = tested on: inotocin R (T. castaneum); test: IP1 accumulation, CHO cells expressing T. castaneum inotocin receptor; format: cell-based, Tribolium castaneum; details: 10 µM peptide, T. castaneum INTR
Experimental: (§1) Chinese Hamster Ovary cells (CHO) were cultured in Ham’s F12 media supplemented with 10% fetal bovine serum (FBS), 1% PenStrep (all from Sigma-Aldrich, Munich, Germany) and grown in a humidified atmosphere of 37 °C, 5% CO2 and passaged on average twice per week. CHO cells were used for expression of inotocin receptor (L. niger, T. castaneum). Cell transfections were carried out with 10 μg of plasmid using Lipofectamine LTX (Life Technologies, Invitrogen, Carlsbad, USA) for invertebrate receptors. For the expression of human OTR, V1aR, V1bR and V2R, HEK293 cells were transfected using jetPRIME (Polyplus Transfections, Illkirch-Graffenstaden, France)[35]. Cells were maintained in DMEM (GE Healthcare Hy Clone™, Logan, USA) supplemented with 10% FBS and 1% PenStrep.
(§2) Activation of Gq-signalling via the human V1aR, V1bR and OTR, as well as the insect INTR was measured by inositol-1-phosphate (IP1) quantification using an IP1 Tb kit (Cisbio, Codolet, France). Transfected cells were seeded in 96 well-plates, with a cell density of 10^4 cells per well. […] Samples were measured in technical triplicates. […] Activation of Gs-signalling via the human V2R was measured using a luciferase reporter assay. […] For Schild regression analysis, each concentration-ratio (r) was calculated as the agonist EC50 in the presence of a respective concentration of [D-Arg8]-inotocin by the EC50 of the agonist alone.

inotocin R (L. niger) = test: IP1 accumulation, CHO cells expressing L. niger inotocin receptor; format: cell-based, Lasius niger; details: 10 µM peptide, L. niger INTR
Experimental: as §1, §2

human myometrium = test: Ex vivo human myometrial contractility, vasopressin-augmented (0.5 nM); details: vasopressin 0.5 nM
human V2R [2] = molecular target: T1, human V2R (Homo sapiens, UniProt P30518); test: Radioligand displacement of [3H] vasopressin, human V2R membranes; format: binding
T1 construct: expressed in transfected cells; host or cells: HEK293 cells, transient (jetPRIME); for the reporter assay co-transfected with pGL4.29 [luc2P/CRE/Hygro]
T1 sequence (P30518 whole entry): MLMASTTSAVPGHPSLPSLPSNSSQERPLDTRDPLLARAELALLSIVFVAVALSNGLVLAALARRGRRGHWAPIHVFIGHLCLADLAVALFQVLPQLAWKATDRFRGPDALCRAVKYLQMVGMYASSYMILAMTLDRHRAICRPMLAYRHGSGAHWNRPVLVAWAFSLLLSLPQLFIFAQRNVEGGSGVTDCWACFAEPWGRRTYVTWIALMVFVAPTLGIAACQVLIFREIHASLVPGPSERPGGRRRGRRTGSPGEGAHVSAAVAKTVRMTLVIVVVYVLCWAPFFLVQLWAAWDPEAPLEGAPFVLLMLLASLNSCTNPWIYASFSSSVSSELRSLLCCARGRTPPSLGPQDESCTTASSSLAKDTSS
Experimental: as §1
(§3) Unbound ligands were washed off (Skatron Cell Harvester). […] Bindings of [^3H] AVP and [^3H] […] Bindings of [^3H] inotocin to membranes (10 μg) expressing INTR from L. niger, or [^3H] inotocin to membranes (10 μg) expressing INTR from T. castaneum, respectively, were assayed for displacement with an excess of inotocin (10^−11 to 10^−5 M) (n ≥ 3, except where otherwise stated). […] Specific binding was calculated by subtracting the non-specific binding from the total binding. IC50 values were obtained by fitting the data to a three-parameter logistic Hill equation. Inhibition constants (Ki) were calculated from IC50 using the method by Cheng and Prusoff[65].

human V1aR [3] = molecular target: T2, human V1aR (Homo sapiens, UniProt P37288); test: IP1 accumulation, HEK293 cells expressing human V1aR; format: cell-based; parameters: expressed in transfected cells; host or cells: HEK293 cells, transient (jetPRIME)
T2 sequence (P37288 whole entry): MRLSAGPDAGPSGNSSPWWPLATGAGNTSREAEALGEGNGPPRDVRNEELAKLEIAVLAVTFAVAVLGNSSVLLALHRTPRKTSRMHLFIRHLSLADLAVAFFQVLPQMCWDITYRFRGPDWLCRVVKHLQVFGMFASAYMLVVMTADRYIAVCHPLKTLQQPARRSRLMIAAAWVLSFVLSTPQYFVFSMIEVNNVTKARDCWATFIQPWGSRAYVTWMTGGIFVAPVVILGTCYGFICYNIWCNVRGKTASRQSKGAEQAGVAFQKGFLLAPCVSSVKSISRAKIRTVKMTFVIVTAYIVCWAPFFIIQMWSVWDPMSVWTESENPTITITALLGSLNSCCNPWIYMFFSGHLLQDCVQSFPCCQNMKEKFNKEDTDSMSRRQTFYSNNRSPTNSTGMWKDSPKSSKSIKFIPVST
Experimental: as §1
(§4) Activation of Gq-signalling via the human V1aR, V1bR and OTR, as well as the insect INTR was measured by inositol-1-phosphate (IP1) quantification using an IP1 Tb kit (Cisbio, Codolet, France). Transfected cells were seeded in 96 well-plates, with a cell density of 10^4 cells per well. Cell culture media was removed from the wells after 6 h and 70 μL of peptide of interest, prepared in IP1 1X Stimulation Buffer at the desired concentrations, was added. Samples were measured in technical triplicates. After 1 h incubation at 37 °C, 15 μL of IP1-d2 was added, following the same volume of Ab-cryptate. […] Activation of Gs-signalling via the human V2R was measured using a luciferase reporter assay. HEK293 transiently expressing V2R were co-transfected with the pGL4.29 [luc2P/CRE/Hygro] (Promega, Mannheim, Germany) plasmid. […] For cell-based functional assays (luciferase and IP1), subtraction of the negative control (stimulation buffer) was applied to all data set. The normalization was performed to the highest value of the positive control from at least 4 independent experiments. Data were fitted using GraphPad Prism 5.0 with an equation for non-linear regression (sigmoidal, slope fit of 1). Values are reported as mean ± SEM. For Schild regression analysis, each concentration-ratio (r) was calculated as the agonist EC50 in the presence of a respective concentration of [D-Arg8]-inotocin by the EC50 of the agonist alone.

human V2R [4] = molecular target: T1, human V2R; test: cell-based; details: luciferase reporter, CRE response element; mean ± SEM; read-out: Potency (EC50)
Experimental: as §1, §4

human V1bR [5] = molecular target: T3, human V1bR (Homo sapiens, UniProt P47901); test: cell-based
T3 construct: expressed in transfected cells; host or cells: HEK293 cells, transient (jetPRIME)
T3 sequence (P47901 1-424): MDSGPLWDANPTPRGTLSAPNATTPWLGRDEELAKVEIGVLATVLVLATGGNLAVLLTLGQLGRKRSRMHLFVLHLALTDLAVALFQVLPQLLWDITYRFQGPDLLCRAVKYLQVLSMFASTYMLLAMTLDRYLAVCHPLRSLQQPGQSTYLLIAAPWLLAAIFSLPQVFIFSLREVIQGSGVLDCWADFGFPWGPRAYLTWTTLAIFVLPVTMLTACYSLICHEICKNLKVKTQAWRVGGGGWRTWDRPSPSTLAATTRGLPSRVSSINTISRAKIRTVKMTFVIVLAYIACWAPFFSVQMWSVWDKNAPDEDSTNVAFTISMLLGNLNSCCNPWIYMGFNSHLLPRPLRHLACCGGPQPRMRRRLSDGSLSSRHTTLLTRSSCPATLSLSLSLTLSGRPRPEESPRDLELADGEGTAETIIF
Experimental: as §1, §4

human OTR [6] = molecular target: T4, human OTR (Homo sapiens, UniProt P30559); test: Radioligand displacement of [3H] oxytocin, human OTR membranes; format: binding; details: read-out: Affinity (Ki)
T4 construct: expressed in transfected cells; host or cells: HEK293 cells, transient (jetPRIME)
T4 sequence (P30559 1-389): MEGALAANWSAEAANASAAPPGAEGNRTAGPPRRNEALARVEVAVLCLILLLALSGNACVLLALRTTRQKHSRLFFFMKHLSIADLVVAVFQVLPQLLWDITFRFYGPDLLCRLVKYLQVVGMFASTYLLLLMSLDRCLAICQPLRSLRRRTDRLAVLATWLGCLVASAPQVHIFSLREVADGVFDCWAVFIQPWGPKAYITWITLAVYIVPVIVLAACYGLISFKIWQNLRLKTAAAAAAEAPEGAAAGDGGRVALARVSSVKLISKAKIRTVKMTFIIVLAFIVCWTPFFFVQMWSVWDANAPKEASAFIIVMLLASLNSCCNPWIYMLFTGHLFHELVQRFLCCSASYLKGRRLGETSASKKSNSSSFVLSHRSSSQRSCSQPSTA
Experimental: as §1
as §3, with “IC50 values were obtained by fitting the data to a three-parameter logistic Hill equation.” left out

human V1aR [7] = molecular target: T2, human V1aR; test: Radioligand displacement of [3H] vasopressin, human V1aR membranes; format: binding; parameters: expressed in transfected cells; host or cells: HEK293 cells, transient (jetPRIME)
Experimental: as §1
as §3, with “IC50 values were obtained by fitting the data to a three-parameter logistic Hill equation.” left out

human V1bR [8] = molecular target: T3, human V1bR; test: Radioligand displacement of [3H] vasopressin, human V1bR membranes; format: binding
Description: Unbound ligands were washed off (Skatron Cell Harvester). […] For the displacement at the human OTR, V1aR, V1bR and V2R the normalization to 100% refers on average to 0.49, 1.4, 0.36, 1.1 pmoles of ligand bound per milligram of membrane for human OTR, V1aR, V1bR and V2R, respectively. […] For the displacement at the insect receptors the normalization to 100% refers on average to 0.65 and 0.69 pmoles of ligand bound per milligram of membrane for inotocin receptor from L. niger and T. castaneum, respectively. Bindings of [^3H] inotocin to membranes (10 μg) expressing INTR from L. niger, or [^3H] inotocin to membranes (10 μg) expressing INTR from T. castaneum, respectively, were assayed for displacement with an excess of inotocin (10^−11 to 10^−5 M) (n ≥ 3, except where otherwise stated). […] Specific binding was calculated by subtracting the non-specific binding from the total binding. IC50 values were obtained by fitting the data to a three-parameter logistic Hill equation. Inhibition constants (Ki) were calculated from IC50 using the method by Cheng and Prusoff[65].

[9] = format: in vitro ADME, human
Experimental: Serum stability was tested as described previously. Briefly, serum was obtained prepared from human blood (self-donor), allowed to coagulate for 2 h at 23 °C and centrifuged at 12,000 × g for 10 min. Peptides (100 μM) were incubated in serum for 2, 4, 6, 8, 10 and 24 h at 37 °C. To evaluate peptide stability, aliquots ([…]) were analysed via RP-HPLC (UltiMate 3000, Thermo Scientific Dionex, Vienna, Austria) on a C18 column (Phenomenex Kinetex, Aschaffenburg, Germany) with a 3% gradient using 0.1% (v/v) TFA and 90/10/0.1% (v/v/v) acetonitrile/H2O/TFA as eluents. Half-life (t1/2) of peptides was calculated using non-linear regression analysis using Graph Pad Prism.
Supplementary Fig. 5. Human serum stability of the inotocin D-analogue. [D-Arg 8 ]-inotocin […]
serum and their stability monitored via HPLC over a time course of 2, 4, 6, 8, 10 and 24 h. Melittin, a haemolytic peptide from the bee venom was used as a positive control f or peptide degradation.
Area under the curves of samples was determined and correlated to the negative control analyte, which was dissolved in 0.1% TFA; thus they were not subject to degradation and were assumed therefore as 100%. Peptide stability was expressed in percentage of peptide remaining.
(1 picture or pasted object on this page, not shown here)

human V1aR [10] = molecular target: T2, human V1aR; test: cell-based
human OTR [11] = molecular target: T4, human OTR; test: IP1 accumulation, HEK293 cells expressing human OTR; format: cell-based
Experimental: as §1, §4

[12] = 100 nM, relative to control activity
[13] = Affinity (Ki), displacement of [3H] vasopressin, mean ± SEM
[14] = IP1 accumulation, mean ± SEM, read-out: Potency (EC50)
[15] = IP1 response, human V1aR, read-out: EC50
[16] = IP1 response, human OTR, read-out: EC50

| Compound | Ki (human V2R [2]; [13]) | EC50 (human V1aR [3]; [14]) | EC50 (human V1aR [3]; [15]) | EC50 (human V2R [4]) | EC50 (human V1bR [5]; [14]) | Ki (human OTR [6]) | Ki (human V1bR [8]; [13]) | EC50 (human OTR [11]; [14]) | EC50 (human OTR [11]; [16]) | other results |
| --- | --- | --- | --- | --- | --- | --- | --- | --- | --- | --- |
| 1-desamino-8-D-arginine-vasopressin [Desmopressin] | – | – | – | – | – | – | – | – | – | activation (IP1 formation) [1]: inactive; activation (IP1 formation) (inotocin R (L. niger)): inactive |
| COc1ccc(S(=O)(=O)N2c3ccc(Cl)cc3[C@](O)(c3ccccc3Cl)[C@@H]2C(=O)N2CCC[C@H]2C(N)=O)cc1OC [SR49059, relcovaptan] | – | – | – | – | – | – | – | – | – | reduction of area-under-the-curve (AUC) (human myometrium; [12]): 72.1%; reduction of contraction amplitude (human myometrium; [12]): 54.8%; concentration at which decrease in area-under-the-curve became significant (human myometrium; tested 1-100 nM): 30 nM; concentration at which decrease in contraction amplitude became significant (human myometrium; tested 1-100 nM): 30 nM |
| CC[C@H](C)[C@@H]1NC(=O)[C@H](CC(C)C)NC(=O)[C@@H](N)CSSC[C@@H](C(=O)N2CCC[C@H]2C(=O)N[C@H](CCCNC(=N)N)C(=O)NCC(N)=O)NC(=O)[C@H](CC(N)=O)NC(=O)[C@H]([C@@H](C)O)NC1=O [[D-Arg8]-inotocin] (H-CLITNCP[dR]G-NH2; disulfide 1-6) | > 100 µM | > 100 µM | > 10 µM | 0.164 ± 0.026 µM | > 100 µM | > 4 µM | > 100 µM | > 100 µM | > 10 µM | Ki (human V2R [2]; Ki, no significant displacement, human V2 receptor): > 4 µM; EC50 (human V1bR [5]; IP1 response, human V1bR, read-out: EC50): > 10 µM; binding selectivity (human V1aR [7]; human V1aR over OTR, V1bR and V2R): 3,000 fold; Ki (human V1bR [8]; Ki, no significant displacement, human V1b receptor): > 4 µM; remaining at 24 h ([9]; human serum, 37 °C, 24 h, read-out: peptide still present after 24 h): > 70%; Kb (human V1aR [10]): 0.0158 µM |
| CC[C@H](C)[C@@H]1NC(=O)[C@H](CC(C)C)NC(=O)[C@@H](N)CSSC[C@@H](C(=O)N2CCC[C@H]2C(=O)N[C@@H](CCCNC(=N)N)C(=O)NCC(N)=O)NC(=O)[C@H](CC(N)=O)NC(=O)[C@H]([C@@H](C)O)NC1=O [inotocin] (H-CLITNCPRG-NH2; disulfide 1-6) | > 100 µM | > 100 µM | > 10 µM | > 1.5 µM | 0.056 ± 0.0097 µM | 0.062 ± 0.037 µM | 0.012 ± 0.0065 µM | > 100 µM | > 10 µM | Ki (human V1aR [7]; read-out: Affinity (Ki)): 0.011 ± 0.0044 µM; half-life ([9]; human serum, 37 °C, 100 μM peptide, read-out: half-life t½ (converted)): 2.8 h; degradation in human serum ([9]; within 24 h): fully degraded |
